# Data reported in US20140243415A1, “COMPOUNDS INHIBITING GALECTIN-1 EXPRESSION, CANCER CELL PROLIFERATION, INVASION, AND TUMORIGENESIS” (ONCOETHIX SA, priority 2011, published 2014).
# Key:
# GAL1 mRNA = assay: Real-time RT-PCR of GAL1 mRNA; format: cell-based, human; conditions: OTX-008 exposed cancer cells
# Text: The theoretical and practical aspects of real-time quantitative RT-PCR using the ABI Prism 7900 Sequence Detection System (Perkin-Elmer Applied Biosystems, Foster City, Calif., USA) have been described in detail elsewhere Results were expressed as n-fold differences in target gene expression relative to the TBP gene (an endogenous RNA control) and relative to a calibrator (1× sample), consisting of the cell line sample from our tested series that contained the smallest amount of target gene mRNA. Experiments were performed in duplicate.
# SQ20B cells [1] = assay: In vitro growth inhibition assay; format: cell-based, human; conditions: SQ20B, OTX-008 added to semaphorin-3A or lactose
# Experimental: (§1) FIG. 5. Modulation of the galectin-1/semaphorin-3A/neuropilin system in SQ20B cells. A—Effects of galectin-1 (Gall), semaphorin-3A (Sema3A), lactose, with or without four different concentrations of OTX-008 on SQ20B growth at day 6. Embedded figure: Proliferation assay of SQ20B and SQ-shGAL1. B—In vitro matrigel invasion assay of SQ20B exposed to […] galectin-1, 1 μg/ml semaphorin-3A, 200 ng/ml lactose or 10 μM UO126 with or without 3 μM OTX-008. Embedded figure: In vitro matrigel invasion assay of SQ20B and SQ-shGAL1. Invasion was quantified after 48 h by counting the average number of invaded cells.
# For proliferation assay, cells were seeded in 96-well tissue culture plates at a density of 1.5×10^3 cells/well. MTT assay was conducted daily to determine the number of viable cells in untreated control and treated group. Growth inhibition curves were plotted as a percentage of cells for each experimental condition.
# (§2) Galectin-1 may form extracellular lattices counteracting the inhibitory properties of semaphorin-3A on neuropilin-1, eventually leading to the modulation of the vascular endothelial growth factor (VEGFR) and platelet derived growth factor (PDGFR) receptors, fibronectin, and laminin activity SQ20B cells expressed significant mRNA and protein levels of semaphorin-3A and neuropilin-1, PDGFRa&(, VEGF A-D, and VEGFR1-3 (Supplementary FIG. 2A). Thus, SQ20B cells were selected to evaluate the effects of OTX-008 on galectin-1/semaphorin-3A interactions. No difference between SQ20B cells growing in plastic or fibronectin- and laminin-coated plates. […] Galectin-1 and semaphorin-3A induced invasion was inhibited by OTX-008 mimicking the effects of lactose in this model.
# wee1 (serine 642) = assay: Western blot of phosphorylated wee1 in SQ20B; format: cell-based, human; conditions: 3 μM OTX-008 for 72 h
# Experimental: Cells were lysed in buffer containing 50 mM HEPES (pH 7.6), 150 mM NaCl, 1% Triton X-100, 2 mM sodium vanadate, 100 mM NaF, and 0.4 mg/ml phenylmethylsulfonyl fluoride. Equal amounts of protein (30 μg/lane) were subjected to SDS-PAGE and transferred to nitrocellulose membranes. Membranes were blocked with 5% milk in 0.05% Tween 20/phosphate-buffered saline and then incubated with the primary antibody overnight. Membranes were then washed and incubated with the secondary antibody conjugated to horseradish peroxidase. Bands were visualized by using the enhanced chemiluminescence Western blotting detection system. Densitometric analysis was performed under conditions that yielded a linear response. The following antibodies were used: anti-p-cdc2 (tyr15), anti-p-wee1 (ser642), anti-p-p44/42 MAPK (thr202/tyr204), anti-p44/42, anti-p-AKT (ser473), anti-AKT, anti-p-S6 (ser235/236) (Cell Signaling, Saint Quentin Yvelines, France), anti-p-PKCα (ser657) (BD Biosciences, Le-Pont-de-Claix, France) and anti-galectin-1 (Abcam, Cambridge, Mass., USA). All antibodies were used at a 1:1000 dilution.
# To study the mechanism of OTX-008-induced inhibition of cell proliferation, the effect of OTX-008 on cell cycle in SQ20B cells was examined (FIG. 5B). […] Activation of cdc2 (cdk1) by de-phosphorylation of tyrosine 15 is required for G2/M transition. […]
# endothelial cell = endothelial cell proliferation, migration, chick embryo chorioallantoic membrane assays; cited from earlier work
# SQ-shGal1 cells = assay: Antiproliferative effects in galectin-1 silenced cells; format: cell-based, human; conditions: SQ-shGal1 cells in vitro
# Experimental: Galectin-1 shRNA, Semaphorin-3A shRNA and scrambled shRNA plasmids were purchased from Santa Cruz Biotechnology (Santa Cruz, Calif., USA) and transfected into cells using the manufacturer's shRNA transfection protocol. Briefly, a mix of 1 μg shRNA plasmid DNA solution and lpl shRNA plasmid transfection reagent were incubated 45 minutes at room temperature and then added on 50% confluent cells with shRNA plasmid transfection medium. After 6 hours incubation at 37° C., normal growth medium containing double serum and antibiotics concentration was added. After 24 h, the stably transfected cells were selected with puromycin.
# SQ-shGal1 cells were developed from SQ20B using a small hairpin GAL1-RNA silencing transfection. SQ-shGal1 cells display no difference in cell doubling-time and cloning capacity but expressed lower galectin-1 expression and invasive capacity in matrigel as compared to SQ20B (FIG. 8). […] As shown in FIG. 6C-left, silencing galectin-1 expression in mice was associated with a decreased development of secondary tumors as compared to parental SQ20B tumors. SQ-shGal1 cancer cells in tumors expressed lower level of Ki67 and VEGFR-2 expressions (FIG. 6D).
# SQ20B cells [2] = assay: Matrigel invasion assay; format: cell-based, human
# Experimental: as §1
# 8 μm membranes were coated with Matrigel (50 μg). The inserts were placed within a 24-well chamber containing 0.6 ml of RPMI 1640 medium with 20% fetal bovine serum as chemoattractant. 10^5 cells were seeded into the inserts suspended in 0.3 ml of serum-free RPMI. After incubation for 48 h at 37° C., the upper surface of the filter was scraped to remove non-invasive cells. Invasive cells were fixed and stained with a Diff Quik detection Kit (Dade Behring, Paris, France). For quantification, the average number of invading cells per field was assessed by counting 9 random fields under a light microscope (400×).
# as §2
compound,measurement,setting,value
CN(C)CCNC(=O)COc1c2cccc1Cc1cccc(c1OCC(=O)NCCN(C)C)Cc1cccc(c1OCC(=O)NCCN(C)C)Cc1cccc(c1OCC(=O)NCCN(C)C)C2 [OTX-008],GAL1 mRNA expression,GAL1 mRNA,No change
same,antiproliferative effects in combination with semaphorin-3A or lactose,SQ20B cells [1],enhanced the antiproliferative effects
same,wee1 phosphorylation on serine 642,wee1 (serine 642),decreased inactivating phosphorylation of wee1
same,angiogenesis inhibition in vitro,endothelial cell,potent angiogenesis inhibitor
same,antiproliferative effects in galectin-1 silenced cells,SQ-shGal1 cells,does not further increase its antiproliferative effects
same,"invasion of SQ20B cells, agent alone","SQ20B cells [2]; 48 h, 1 g/ml galectin-1, 1 μg/ml semaphorin-3A, 10 μM UO126, 3 μM OTX-008",inhibits proliferation and invasion
same,galectin-1 and semaphorin-3A induced invasion,"SQ20B cells [2]; SQ20B, 3 μM OTX-008, 48 h",inhibited
